Reference: patent US9545367B2, “Cosmetic use of N-heteroarylbisamide analogs and related compounds” (Avon Products, Inc., priority 2011, dated 2017)

Key:
Format in all cases: cell-based, human
Hyaluronic Acid = test: Skin explant assay, Hyaluronic Acid Binding Protein staining; details: skin explants, 0.025 weight percent, nine days in culture; FIGS. 2A and 2B
Description: (§1) Samples of explanted skin tissue were obtained from an abdominal plasty of a person. Samples (33 samples in total) were maintained in tissue culture medium at 37° C. in a humid, 5%-CO2 atmosphere for the duration of the study.
(§2) The skin tissue explants were then distributed into appropriate controls or treated samples in triplicates. The controls received only a vehicle, and the treatment samples received 0.025 weight percent of Analog A disclosed above. The vehicle and Analog A were administered to the controls and treatment samples, respectively, on days 0, 1, 2, 5, and 7.
(§3) After nine days in culture the vehicle and Analog A treated samples were collected and processed for histology and immunostaining Initially, the samples were fixed in buffered formalin for 24 hours. […] Tissue samples were also stained for procollagen I using a Procollagen I rat monoclonal antibody with streptavidin alkaline phosphatase conjugate (Vectastain, Vector labs) and Vector® blue substrate detection system (Vector Laboratories LTD., Peterborough, UK), and hyaluronic acid using biotinylated affinity purified Hyaluronic Acid Binding Protein ((bovine nasal cartilage) Calbiochem, EMD Chemicals USA) and detected using the aforementioned detection system […]

explanted skin tissue = test: Skin explant assay, hematoxylin and eosin histology; details: skin explants, 0.025 weight percent, administered days 0, 1, 2, 5, 7; nine days in culture; vs vehicle control; FIG. 1B
Description: as §1, §2, §3

Procollagen 1 = test: Skin explant assay, procollagen I immunostaining; details: skin explants, 0.025 weight percent, nine days in culture; FIGS. 3A and 3B
Description: as §1, §2, §3

Cc1cccc(-n2nc(C(C)(C)C)cc2NC(=O)CCCC(=O)NC(C)C(C)C)c1 (stereo not shown) [Analog A]
expression of Hyaluronic Acid in comparison to the vehicle control (Hyaluronic Acid): increased | cell density throughout the basal epidermis (hematoxylin and eosin stain) (explanted skin tissue): maintained their cell density throughout the basal epidermis | contact with the basal layer (hematoxylin and eosin stain) (explanted skin tissue): good contact with the basal layer | expression of Procollagen 1 in comparison to the vehicle control (Procollagen 1): increased
